# According to paper PMC5640650, “NatD promotes lung cancer progression by preventing histone H4 serine phosphorylation to activate Slug expression” (Nature Communications, 2017):
# Test system: A549 cells
# Experiment: Expression of EMT genes, A549 cells
# Format: cell-based, human
# Settings: vs Scr
# Method: Cellular proteins were extracted by RIPA lysis buffer at high salt concentration (420 mM NaCl), and western blot analysis was performed in accordance with standard protocols. Scans of enhanced chemiluminescence (ECL) films showing uncropped blots are presented in Supplementary Fig. 10. […]
# Total RNA from tissue samples and cultured cells was extracted using TRIzol reagent (Invitrogen). cDNAs were synthesized with a HiScript 1st Strand cDNA Synthesis Kit (Vazyme Biotech, China). Quantitative RT-PCR was performed using a FastStart Universal SYBR Green Master (Roche) according to the manufacturer’s instructions in a Rotor-Gene 6000 (Corbett Research) in a final volume of 20 μl. […]
# Supplementary Figure 4. […] (a) Quantitative real-time PCR analysis of mRNA levels of NatD, CCND1, p21, p27, p57, p16, p18, p19, CHEK2, E2F1, CCND2, KRAS, PTEN, c-Myc, and PCNA in scrambled (Scr) and NatD knockdown (NatD-KD) H1299 cells normalized to GAPDH. […] (b) Quantitative real-time PCR analysis of mRNA levels of NatD and key EMT-related genes in Scr and NatD-KD A549 cells normalized to […]
# GAPDH served as a loading control. […] (bottom) Cell migration and invasion expressed as a percentage of control. […]
substance,measurement,value
"NatD-KD2: Human NatD shRNA KD2: 5′-GGTTGAATGTCTCCATTGA-3′, lentiviral (shRNA lentiviral)",expression of E-cadherin,increased the expression
same,"expression of Slug, N-cadherin, and Vimentin",decreased the expression
